Test [1] has as its target Histamine H1 receptor (Cavia porcellus, UniProt P31389).
Test [2] has as its target Histamine H1 receptor (Homo sapiens, UniProt P35367).

By Ki is commonly meant a dissociation constant, usually derived from enzyme kinetics or from competition with a known ligand.

Chain of Histamine H1 receptor (Cavia porcellus, UniProt P31389) (P31389 whole entry): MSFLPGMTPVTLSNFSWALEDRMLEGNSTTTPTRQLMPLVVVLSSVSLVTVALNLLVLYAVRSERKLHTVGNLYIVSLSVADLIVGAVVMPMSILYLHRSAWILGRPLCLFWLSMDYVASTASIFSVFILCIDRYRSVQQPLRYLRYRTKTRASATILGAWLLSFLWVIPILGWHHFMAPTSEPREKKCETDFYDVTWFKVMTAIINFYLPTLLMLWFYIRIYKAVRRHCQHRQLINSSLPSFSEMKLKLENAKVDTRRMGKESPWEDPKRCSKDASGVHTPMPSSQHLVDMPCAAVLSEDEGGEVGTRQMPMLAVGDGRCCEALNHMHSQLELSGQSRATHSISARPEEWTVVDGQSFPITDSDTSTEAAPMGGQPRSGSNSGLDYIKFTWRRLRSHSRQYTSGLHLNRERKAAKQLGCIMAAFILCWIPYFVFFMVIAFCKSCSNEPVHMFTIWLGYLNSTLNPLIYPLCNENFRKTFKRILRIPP
Chain of Histamine H1 receptor (Homo sapiens, UniProt P35367) (P35367 whole entry): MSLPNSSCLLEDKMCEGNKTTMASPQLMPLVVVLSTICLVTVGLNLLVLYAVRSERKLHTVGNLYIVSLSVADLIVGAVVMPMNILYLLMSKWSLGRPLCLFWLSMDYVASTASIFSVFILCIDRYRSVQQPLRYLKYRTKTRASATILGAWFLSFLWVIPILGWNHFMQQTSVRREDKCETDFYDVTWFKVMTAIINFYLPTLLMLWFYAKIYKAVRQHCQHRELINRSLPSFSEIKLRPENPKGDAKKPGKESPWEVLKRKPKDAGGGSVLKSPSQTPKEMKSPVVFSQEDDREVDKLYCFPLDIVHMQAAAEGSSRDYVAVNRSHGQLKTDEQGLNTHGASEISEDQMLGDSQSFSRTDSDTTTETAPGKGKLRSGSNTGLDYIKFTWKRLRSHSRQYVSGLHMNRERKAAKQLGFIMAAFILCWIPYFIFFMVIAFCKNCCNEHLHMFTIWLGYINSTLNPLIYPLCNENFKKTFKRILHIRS

The compound `NCCc1nccs1` [2-(2-aminoethyl)thiazole] gave a Ki on Histamine H1 receptor [1] of 8490 nM. `NCCc1c[nH]c(-c2cccc(Cl)c2)n1` [2-(3-Chlorophenyl)histamine]: the Ki at Histamine H1 receptor [2] is 1780 nM; at Histamine H1 receptor [1], 600 nM. `NCCc1c[nH]c(-c2cccc(I)c2)n1` [2-(3-Iodophenyl)histamine]: the Ki was 1760 nM at Histamine H1 receptor [2] and 610 nM at Histamine H1 receptor [1]. On the same counts, the results for `NCCc1c[nH]c(-c2cccc(Br)c2)n1` [2-[2-(3-bromophenyl)-1H-imidazol-4-yl]ethan-1-amine] are 2220 nM and 700 nM. On to `N=C(NCCCc1c[nH]cn1)NCCC(c1cccc(Cl)c1)c1ccccn1` (stereo unspecified) [BU-E 47], for which the inhibition constant Ki on Histamine H1 receptor [2] is 255 nM; at Histamine H1 receptor [1], 53.9 nM.

With `Cc1ccc(C(=CCN2CCCC2)c2ccccn2)cc1` [CAS_486-12-4], the Ki on Histamine H1 receptor [1] worked out at 1.15 nM. With `NC(=NCCC(c1ccc(F)cc1)c1ccccn1)NCCCc1cnc[nH]1` (stereo unspecified) [CAS_65895], the results for the Ki on Histamine H1 receptor [2] and on Histamine H1 receptor [1] were 353 nM and 33.3 nM, respectively. With `CN(C)CCc1c[nH]c(CCC(c2ccccc2)c2ccccc2)n1` [N,N-Dimethyl-2-(3,3-diphenylpropyl)-1H-imidazole-4-(ethanamine)], the Ki on Histamine H1 receptor [2] came to 400 nM; at Histamine H1 receptor [1] it was 310 nM.

Consider `CNCCc1cnc(CCC(c2ccccc2)c2ccccc2)[nH]1` [N-Methyl-2-(3,3-diphenylpropyl)-1H-imidazole-4-(ethanamine)], for which the Ki at Histamine H1 receptor [2] turned out to be 370 nM; on Histamine H1 receptor [1] it was 290 nM.

The values are drawn from BindingDB's records for doi:10.1124/jpet.103.049619 (University of Kansas, 2003).
